Assay results reported in ChEMBL document CHEMBL1201862, “PubChem BioAssay data set” (2004).
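The compound was tested at five concentrations on cells cultured in 96-well plates, with a 48-hour exposure period. Here, GI50 denotes the concentration required for 50% inhibition of growth.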 The source made the active and inactive calls. No stated cut-off is given here; in the data, active = GI50 up to about 1.1 µM and inactive = higher.

Legend:
Assay in all cases: NCI anticancer screen, dose series, 48 h
786-0 = test system: 786-0
BT-549 = test system: BT-549
EKVX = test system: EKVX
HCC 2998 = test system: HCC 2998
HCT-116 = test system: HCT-116
Hs-578T = test system: Hs-578T
IGROV-1 = test system: IGROV-1
K562 = test system: K562
MOLT-4 = test system: MOLT-4
NCI-H226 = test system: NCI-H226
NCI-H522 = test system: NCI-H522
OVCAR-4 = test system: OVCAR-4
OVCAR-5 = test system: OVCAR-5
OVCAR-8 = test system: OVCAR-8
RPMI-8226 = test system: RPMI-8226
RXF 393 = test system: RXF 393
SK-OV-3 = test system: SK-OV-3
SNB-75 = test system: SNB-75
UACC-257 = test system: UACC-257
TK-10 = test system: TK-10

Measured: GI50

CC(=O)OC(=C(C#N)C#N)c1nccnc1C(=O)O
inactive: 786-0 > 100 µM | BT-549 > 100 µM | EKVX > 100 µM | HCC 2998 > 100 µM | HCT-116 > 100 µM | Hs-578T > 100 µM | IGROV-1 > 100 µM | K562 > 100 µM | MOLT-4 > 100 µM | NCI-H226 > 100 µM | NCI-H522 > 100 µM | OVCAR-4 > 100 µM | OVCAR-5 > 100 µM | OVCAR-8 > 100 µM | RPMI-8226 > 100 µM | RXF 393 > 100 µM | SK-OV-3 > 100 µM | SNB-75 95.7 µM | UACC-257 > 100 µM

O=C(/N=C1/OC(CN2CCOCC2)CN1C(=O)Nc1ccccc1)Nc1ccccc1 (stereo not drawn)
inactive: 786-0 > 100 µM | BT-549 > 100 µM | EKVX > 100 µM | HCC 2998 > 100 µM | HCT-116 > 100 µM | Hs-578T > 100 µM | IGROV-1 > 100 µM | K562 > 100 µM | MOLT-4 > 100 µM | NCI-H226 > 100 µM | NCI-H522 > 100 µM | OVCAR-4 > 100 µM | OVCAR-5 > 100 µM | OVCAR-8 > 100 µM | RPMI-8226 > 100 µM | RXF 393 > 100 µM | SK-OV-3 > 100 µM | SNB-75 54.7 µM | TK-10 > 100 µM | UACC-257 > 100 µM

COc1ccc(C(=O)Nc2ccc3oc(-c4ccccc4)nc3c2)cc1
inactive: 786-0 92.7 µM | BT-549 > 100 µM | EKVX > 100 µM | HCC 2998 > 100 µM | HCT-116 > 100 µM | Hs-578T > 100 µM | IGROV-1 > 100 µM | K562 > 100 µM | MOLT-4 > 100 µM | NCI-H226 > 100 µM | NCI-H522 > 100 µM | OVCAR-4 > 100 µM | OVCAR-5 > 100 µM | OVCAR-8 22.3 µM | RPMI-8226 > 100 µM | RXF 393 > 100 µM | SK-OV-3 56.4 µM | SNB-75 29 µM | TK-10 > 100 µM | UACC-257 > 100 µM

COc1ccc(/C=C(\C(=C/c2ccc(OC)cc2)[N+](=O)[O-])[N+](=O)[O-])cc1
inactive: 786-0 2.04 µM | BT-549 6.1 µM | EKVX 8.71 µM | HCC 2998 15.5 µM | HCT-116 10.2 µM | Hs-578T 4.18 µM | IGROV-1 4.55 µM | K562 3.92 µM | MOLT-4 2.96 µM | NCI-H226 3.97 µM | NCI-H522 2.58 µM | OVCAR-4 12.8 µM | OVCAR-5 10.3 µM | OVCAR-8 2.03 µM | RPMI-8226 3.15 µM | RXF 393 1.54 µM | SK-OV-3 16.6 µM | SNB-75 26.1 µM | TK-10 5.71 µM | UACC-257 5.22 µM

CC(=O)OC/C=C(/C=C/CNC1CCCCC1)OC(C)=O
inactive: 786-0 11.5 µM | BT-549 16.9 µM | EKVX 16.5 µM | HCC 2998 23.4 µM | HCT-116 14.9 µM | Hs-578T 36.3 µM | IGROV-1 18.6 µM | K562 12.9 µM | MOLT-4 36.2 µM | NCI-H226 25.9 µM | NCI-H522 21.4 µM | OVCAR-4 20.8 µM | OVCAR-5 16.3 µM | OVCAR-8 > 10 µM | RPMI-8226 4.83 µM | RXF 393 17.9 µM | SK-OV-3 19.6 µM | SNB-75 31.3 µM | TK-10 16.6 µM | UACC-257 15.1 µM

CC(C)(C)c1cc(OCc2nnc(S)n2N)c(Cl)cc1OCc1nnc(S)n1N
inactive: 786-0 59.6 µM | BT-549 37.5 µM | EKVX 49.7 µM | HCC 2998 31.1 µM | HCT-116 33 µM | Hs-578T 43 µM | IGROV-1 44.9 µM | K562 37.7 µM | MOLT-4 22.6 µM | NCI-H226 > 100 µM | NCI-H522 35.2 µM | OVCAR-4 43.3 µM | OVCAR-5 63.7 µM | OVCAR-8 50.5 µM | RPMI-8226 29.5 µM | RXF 393 26.2 µM | SK-OV-3 > 100 µM | SNB-75 44.1 µM | TK-10 52.2 µM | UACC-257 33 µM

C[N+]1(CCCCN2c3ccccc3Sc3cc(N=[N+]=[N-])ccc32)CCN(C(=O)CCNC(=O)Cc2ccc(C(=O)c3ccccc3)cc2)CC1
inactive: 786-0 27 µM | BT-549 29.2 µM | EKVX 31.9 µM | HCC 2998 16.1 µM | HCT-116 25.9 µM | Hs-578T 34 µM | IGROV-1 23.4 µM | K562 7.19 µM | MOLT-4 23.1 µM | NCI-H226 36.1 µM | NCI-H522 24.4 µM | OVCAR-4 21.2 µM | OVCAR-5 21.7 µM | OVCAR-8 34.7 µM | RPMI-8226 18.7 µM | RXF 393 31.5 µM | SK-OV-3 29 µM | SNB-75 20.3 µM | TK-10 11.4 µM | UACC-257 31.3 µM

C=C1C(=O)OC2CC(C)C3(O)CCC(=O)C3(C)CC12 (stereo not drawn)
inactive: 786-0 21.3 µM | BT-549 44.2 µM | EKVX 27.2 µM | HCC 2998 23 µM | HCT-116 31.1 µM | Hs-578T 25.9 µM | IGROV-1 23.8 µM | MOLT-4 22.2 µM | NCI-H226 64 µM | NCI-H522 14.3 µM | OVCAR-4 18.7 µM | OVCAR-5 23.6 µM | OVCAR-8 24.6 µM | RPMI-8226 14.8 µM | RXF 393 21.8 µM | SK-OV-3 46.8 µM | SNB-75 20.2 µM | TK-10 26.7 µM | UACC-257 43.7 µM

Cc1cn(CC2(CO)CCC2)c(=O)[nH]c1=O
inactive: 786-0 > 100 µM | BT-549 > 100 µM | EKVX > 100 µM | HCC 2998 > 100 µM | HCT-116 > 100 µM | Hs-578T > 100 µM | IGROV-1 > 100 µM | K562 > 100 µM | MOLT-4 > 100 µM | NCI-H226 > 100 µM | NCI-H522 > 100 µM | OVCAR-4 > 100 µM | OVCAR-5 > 100 µM | OVCAR-8 > 100 µM | RPMI-8226 > 100 µM | RXF 393 > 100 µM | SK-OV-3 > 100 µM | SNB-75 > 100 µM | TK-10 > 100 µM | UACC-257 > 100 µM

CCN1CN(c2ccccc2)C2(CCN(CC(CC3OCCO3)c3ccc(F)cc3)CC2)C1=O (stereo not drawn)
inactive: 786-0 8.36 µM | BT-549 21.6 µM | EKVX 6.7 µM | HCC 2998 9.93 µM | HCT-116 3.36 µM | Hs-578T 29.9 µM | IGROV-1 6.75 µM | K562 32 µM | MOLT-4 4.99 µM | NCI-H226 13.5 µM | NCI-H522 12.6 µM | OVCAR-4 13.5 µM | OVCAR-5 6.5 µM | OVCAR-8 8.81 µM | RPMI-8226 10.4 µM | RXF 393 16.2 µM | SK-OV-3 39.8 µM | SNB-75 35.2 µM | TK-10 7.53 µM | UACC-257 2.79 µM

CCOC(=O)C1=NN(c2ccc([N+](=O)[O-])cc2)[C@@]2(C)C[C@]3(c4ccccc4)N(c4ccc([N+](=O)[O-])cc4)N=C(C(=O)OCC)N3c3ccccc3N12
inactive: 786-0 > 100 µM | BT-549 > 100 µM | EKVX > 100 µM | HCC 2998 > 100 µM | HCT-116 > 100 µM | Hs-578T > 100 µM | IGROV-1 > 100 µM | K562 > 100 µM | MOLT-4 > 100 µM | NCI-H226 > 100 µM | NCI-H522 > 100 µM | OVCAR-4 > 100 µM | OVCAR-5 > 100 µM | OVCAR-8 > 100 µM | RPMI-8226 > 100 µM | RXF 393 > 100 µM | SK-OV-3 > 100 µM | SNB-75 > 100 µM | TK-10 > 100 µM | UACC-257 > 100 µM

CCc1n[nH]c(=O)n1N1C(=O)C2CCCCC2C1=O (stereo not drawn)
inactive: 786-0 > 100 µM | BT-549 > 100 µM | EKVX > 100 µM | HCC 2998 > 100 µM | HCT-116 > 100 µM | Hs-578T > 100 µM | IGROV-1 > 100 µM | K562 > 100 µM | MOLT-4 > 100 µM | NCI-H226 > 100 µM | NCI-H522 > 100 µM | OVCAR-4 > 100 µM | OVCAR-5 > 100 µM | OVCAR-8 > 100 µM | RPMI-8226 > 100 µM | RXF 393 > 100 µM | SK-OV-3 > 100 µM | SNB-75 > 100 µM | TK-10 > 100 µM | UACC-257 > 100 µM

COC1C(OC(=O)/C=C/C=C/C=C/C=C/C(=O)O)CCC2(CO2)C1C1(C)OC1CC=C(C)C (stereo not drawn)
inactive: 786-0 20.5 µM | BT-549 21.6 µM | EKVX 27.2 µM | HCC 2998 26 µM | HCT-116 12.6 µM | Hs-578T 40.2 µM | IGROV-1 46.3 µM | K562 21.1 µM | MOLT-4 25.4 µM | NCI-H226 42.8 µM | NCI-H522 23.2 µM | OVCAR-4 21.1 µM | OVCAR-5 > 78.2 µM | OVCAR-8 29.3 µM | RPMI-8226 20.1 µM | RXF 393 48.8 µM | SK-OV-3 > 59.6 µM | SNB-75 25.3 µM | TK-10 57.9 µM | UACC-257 34 µM

O[C@@]1(c2cccs2)c2cccc(Cl)c2[C@](O)(c2cccs2)c2cccc(Cl)c21
inactive: 786-0 16.4 µM | BT-549 19.2 µM | EKVX 16.8 µM | HCC 2998 17.6 µM | HCT-116 13.2 µM | Hs-578T 12.8 µM | IGROV-1 16.3 µM | K562 25.5 µM | MOLT-4 15.9 µM | NCI-H226 22.1 µM | NCI-H522 18.2 µM | OVCAR-4 18.2 µM | OVCAR-5 16.2 µM | OVCAR-8 55.7 µM | RPMI-8226 22 µM | RXF 393 16.3 µM | SK-OV-3 22.6 µM | SNB-75 > 100 µM | TK-10 28.1 µM | UACC-257 15.2 µM
